Source: patent publication US5750754A, “Heterocyclic compounds” (Zeneca Limited, priority 1993, dated 1998)
Structures can show the parent of a compound that is named as a salt. Values belong to the molecule of their own block, whether it stands above or below them.

Columns and labels:
[1] = target: T1, purified human platelet fibrinogen receptor (GPIIb/IIIa) (Homo sapiens, UniProt P05106+P08514); assay: Test (b): GPIIb/IIIa ELISA, inhibition of biotinylated fibrinogen binding; settings: purified human platelet GPIIb/IIIa, ELISA; for IC50: read-out: Test (b): pIC50 (-log(IC50)), 50% inhibition of biotinylated fibrinogen binding to GPIIb/IIIa (converted)
T1 construct: is isolated from human platelet lysates; from tissue
T1 sequence (P08514 32-887 limits assumed): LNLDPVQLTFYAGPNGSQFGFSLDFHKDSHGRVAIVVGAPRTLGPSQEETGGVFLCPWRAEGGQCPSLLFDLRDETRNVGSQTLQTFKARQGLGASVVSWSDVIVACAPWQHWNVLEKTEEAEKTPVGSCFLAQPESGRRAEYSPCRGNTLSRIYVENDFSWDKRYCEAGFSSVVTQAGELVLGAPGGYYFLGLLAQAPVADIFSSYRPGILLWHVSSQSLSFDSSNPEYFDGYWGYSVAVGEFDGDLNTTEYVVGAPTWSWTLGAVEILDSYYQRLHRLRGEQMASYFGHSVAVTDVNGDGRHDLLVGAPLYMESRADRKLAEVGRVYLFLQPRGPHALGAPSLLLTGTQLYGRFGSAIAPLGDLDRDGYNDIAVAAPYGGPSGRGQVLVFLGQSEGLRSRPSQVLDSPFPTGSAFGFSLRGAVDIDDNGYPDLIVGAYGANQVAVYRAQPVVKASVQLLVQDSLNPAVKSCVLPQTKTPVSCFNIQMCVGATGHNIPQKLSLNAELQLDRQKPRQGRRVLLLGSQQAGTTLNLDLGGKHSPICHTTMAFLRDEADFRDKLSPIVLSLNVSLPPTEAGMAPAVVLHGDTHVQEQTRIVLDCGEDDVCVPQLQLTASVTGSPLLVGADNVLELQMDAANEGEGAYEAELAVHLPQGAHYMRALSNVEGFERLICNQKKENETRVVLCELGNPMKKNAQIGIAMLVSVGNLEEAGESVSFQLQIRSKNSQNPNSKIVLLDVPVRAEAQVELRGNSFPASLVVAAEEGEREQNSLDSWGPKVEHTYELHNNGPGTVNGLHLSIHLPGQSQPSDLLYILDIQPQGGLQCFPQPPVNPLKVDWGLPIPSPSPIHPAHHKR
T1 sequence (P08514 891-1039 limits assumed): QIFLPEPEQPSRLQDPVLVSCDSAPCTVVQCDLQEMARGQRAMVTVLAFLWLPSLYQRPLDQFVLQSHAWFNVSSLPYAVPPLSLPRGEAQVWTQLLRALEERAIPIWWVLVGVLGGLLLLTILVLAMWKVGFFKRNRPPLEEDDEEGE
T1 sequence (P05106 27-788): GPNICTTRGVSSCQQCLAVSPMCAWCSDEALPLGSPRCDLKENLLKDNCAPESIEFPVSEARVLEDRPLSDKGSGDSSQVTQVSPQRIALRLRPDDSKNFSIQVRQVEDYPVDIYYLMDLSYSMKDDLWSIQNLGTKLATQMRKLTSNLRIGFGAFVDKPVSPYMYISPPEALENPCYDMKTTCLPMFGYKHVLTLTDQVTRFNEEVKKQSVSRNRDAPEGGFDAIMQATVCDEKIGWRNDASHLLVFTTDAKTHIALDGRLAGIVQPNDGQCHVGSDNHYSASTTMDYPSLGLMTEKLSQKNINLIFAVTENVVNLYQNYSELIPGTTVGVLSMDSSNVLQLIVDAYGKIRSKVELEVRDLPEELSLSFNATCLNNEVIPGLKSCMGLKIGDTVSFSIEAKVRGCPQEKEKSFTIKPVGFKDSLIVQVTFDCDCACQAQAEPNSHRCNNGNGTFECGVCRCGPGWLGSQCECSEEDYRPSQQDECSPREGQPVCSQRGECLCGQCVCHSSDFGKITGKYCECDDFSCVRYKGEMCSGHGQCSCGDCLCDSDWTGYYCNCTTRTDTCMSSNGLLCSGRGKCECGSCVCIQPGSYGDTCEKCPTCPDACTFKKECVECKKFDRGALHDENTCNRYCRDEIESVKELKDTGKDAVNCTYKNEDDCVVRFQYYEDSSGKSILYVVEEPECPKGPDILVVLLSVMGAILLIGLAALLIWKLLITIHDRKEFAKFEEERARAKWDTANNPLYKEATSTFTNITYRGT
Experimental: (i) Preparation of human platelet lysates.
Platelet rich plasma (PRP) is harvested by centrifugation (1000 rpm, 15 mins) of whole blood anticoaoulated with acid citrate dextrose (trisodium citrate 85 mM, citric acid 70 mM, d-glucose 110 mM) 1 part to 6 parts blood. Prostacyclin (PGI2, 1 μM) is added to the PRP before centrifugation (2400 pm, 15 mins) and the resulting pellet is resuspended in modified Tyrodes' solution (NaCl 130 mM, KCl 26 mM, NaHCO3 12 mM, NaH2 PO4 0.5 mM, MgCl2 1 mM, CaCl2 20 mM, Glucose 12 mM, HEPES 5 mM) containing bovine serum albumin 3.5 g/L, PGI2 1 μM and hirudin 0.5 U/ml. The platelet suspension is centrifuged (2400 rpm, 15 mins) and the resultant pellet resuspended in 500 μl of lysis buffer (octyl glucoside 50 mM, HEPES 10 mM, NaCl 150 mM, CaCl2 1 mM, MgCl2 1 mM, PMSF 1 mM, NEM 10 mM, leupeptin 0.1 mM), agitated at 4° C. for 15 minutes then centrifuged at 24000 rpm, 15 mins. The supernatant is stored at 4° C. and the pellet re-suspended in 500 μl of lysis buffer. The centrifugation process is repeated a further 3 tlimes, the pooled supernatants being stored at -70° C.
(ii) Receptor purification.
GP Ilb/Ila is isolated from human platelet lysates using a 2 ml peptide (KYGRGDS) coupled CNBr activated Sepharose affinity column. A 1.5 ml volume of platelet lysate is placed on the column and allowed to stand overnight at 4° C. Buffer (30 mls, octyl gluicoside 25 mM, HEPES 10 mM, NaCl 150 mM, CaCl2 1 mM, MgCl2 1 mM, PMSF 1 mM, NEM 10 mM, leupeptin 0.1 mM) is passed through the column and 2 ml fractions are collected throughout. GPIIb/IIIa is eluted with 12 mls of buffer containing HHLGGAKQAGDV (2 mg/ml, pH 7.5), the column is washed using 4 mls buffer and the remaining GPIIb/IIIa eluted using 12 mls buffer containing GRGDSPG (1 mg/ml pH 7.5). The column is finally washed using 20 mls of buffer and can be used for up to three such preparations. Fractions containing FGPIIb/IIIa are identified using gel electrophoresis and immunoblotting, pooled and stored at -70° C.
96 well microtitre plates are coated with 100 μl purified human platelet fibrinogen receptor (GPIIb/IIIa) diluted in coating buffer (Tris-HCl 20 mM, NaCl 150 mM, CaCl2 1 mM, pH 7.4) and left overnight at 4° C. The plates are washed using washing buffer (Tris-HCl 50 mM, NaCl 100 mM, CaCl2 2 mM, pH 7.4) and non-specific binding, blocked by the addition of 200 μl 2% BSA (2 hours, 30° C.). The plates are washed prior to incubation (2 hours, 30° C.) with 100 μl biotinylated fibrinogen ([…]) containing either vehicle or test compound. The plates are washed, incubated with streptavidin (5 μg/ml, 1 hour, ambient temperature), then washed again before the addition of 100 μl biotinylated horse radish peroxidase (0.1 μg/ml, 1 hour, ambient temperature). The plates are then washed and equal volumes of peroxidase substrate (3, 5, tetramethyl benzidine 0.4 g/l) and H2 O2 (0.02%) are mixed together immediately before addition of 150 μl to each well. Colour is allowed to develop for 10-15 mins before optical densities are read at 650 nm.
The concentration of compound required to cause 50% inhibition of biotinylated fibrinogen binding, is calculated and expressed as a pIC50 (-log(IC50)).

[2] = target: T2, human, citrated, platelet-rich plasma (Homo sapiens, UniProt P05106+P08514); assay: Test (a): inhibition of ADP stimulated platelet aggregation (Born); format: cell-based; settings: ADP induced aggregation of human platelet-rich plasma; for Kb: read-out: Test (a): pA2 value indicating potency of platelet aggregation inhibition (converted)
T2 construct: aggregating human, citrated, platelet-rich plasma; endogenous in cells; host or cells: human platelets in citrated platelet-rich plasma
T2 sequence (P08514 32-887 limits assumed): as the sequence (P08514 32-887 limits assumed) above
T2 sequence (P08514 891-1039 limits assumed): as the sequence (P08514 891-1039 limits assumed) above
T2 sequence (P05106 27-788): as the sequence (P05106 27-788) above
Description: (i) aggregating human, citrated, platelet-rich plasma by addition of adenosine diphosphate so as to generate a dose-response curve;
(ii) generating a dose-response curve for ADP stimulated platelet aggregation in the presence of increasing amounts of a test compound (generally in the range 10-^5 M to 10-^10 M); and
(iii) calculating a pA2 value indicating potency of platelet aggregation inhibition for the test compound, averaged over several concentrations, from the calculated 50% response value for ADP aggregation in the presence and absence of the test compound.

SMILES: O=C(O)COc1ccc(C(=O)CCN2CCN(c3ccncc3)CC2)cc1 [Example 8, 4-[3-[4-(4-Pyridyl)piperazin-1-yl]propanoyl]phenoxyacetic acid]
IC50 [1]: 0.0794 µM | Kb [2]: 0.316 µM

SMILES: O=C(O)C[C@H](NC(=O)CN1CCN(c2ccncc2)CC1)C(=O)N[C@@H](Cc1ccccc1)C(=O)O [Example 39, N-[N-[2-[4-(4-Pyridyl)piperazin-1-yl]acetal]-L-aspartyl]-L-phenylalanine]
IC50 [1]: 0.251 µM | Kb [2]: 25.1 µM

SMILES: O=C(O)Cc1ccc(C(=O)CN2CCN(c3ccncc3)CC2)cc1 [Example 15, 4-[2-[4-(4-Pyridyl)piperazin-1-yl]acetyl]phenylacetic acid, trifluoroacetate salt]
IC50 [1]: 1.26 µM | Kb [2]: 2.51 µM

SMILES: CCCCS(=O)(=O)NCc1ccc(C(=O)CN2CCN(c3ccncc3)CC2)cc1 [Example 22, N-[4-[2-[4-(4-Pyridyl)piperazin-1-yl]acetyl]phenyl]methyl-1-butanesulphonamide]
IC50 [1]: 3.98 µM | Kb [2]: 0.126 to 0.2 µM

SMILES: O=C(O)CCNC(=O)c1ccc(N2CCN(c3ccncc3)CC2)cc1 [Example 57, 3-[4-[4-(4-Pyridyl)piperazin-1-yl]]benzamidopropionic acid]
IC50 [1]: 0.0251 µM | Kb [2]: 0.0251 µM

SMILES: O=C(O)CC1(O)CCC(N2CCN(c3ccncc3)CC2)CC1 (stereo not drawn) [Example 102, cis-1-Hydroxy-4[4-(4-pyridyl)piperazin-1-yl]cyclohexaneacetic acid]
IC50 [1]: 1.58 µM | Kb [2]: 2 µM

SMILES: CS(=O)(=O)NCCc1ccc(NC(=O)C2CCN(c3ccncc3)CC2)cc1 [Example 183, N-[2-[4-[1-(4-Pyridyl)piperidin-4-yl]carboxamidophenyl]ethyl]methanesulphonamide]
IC50 [1]: > 100 µM | Kb [2]: 31.6 µM

SMILES: COC(=O)COc1ccc(OCCC2CCN(c3ccncc3)CC2)cc1 [Example 159, Methyl 4-[2-[1-(4-pyridyl)piperidin-4-yl]ethoxy]phenoxyacetate]
IC50 [1]: 2 µM | Kb [2]: 0.501 µM

SMILES: O=C(O)COc1ccc(C(=O)CN2CCN(c3ccncn3)CC2)cc1 [Example 48, 4-[2-[4-(4-Pyrimidinyl)piperazin-1-yl]acetyl]phenoxyacetic acid]
IC50 [1]: 0.251 µM | Kb [2]: 10 µM

SMILES: COC(=O)C(CCOc1ccc(N2CCN(c3ccncc3)CC2)cc1)NC(=O)OC(C)(C)C (racemic) [Example 211, RS Methyl 2-t-butoxycarbonylamino-4-[4-[4-(4-pyridyl)piperazine-1-yl]phenoxy]butyrat]
IC50 [1]: 0.158 µM | Kb [2]: 1.58 µM

SMILES: COC(=O)C(N)CCOc1ccc(N2CCN(c3ccncc3)CC2)cc1 (racemic) [Example 213, RS Methyl 2-amino-4-[4-[4-(4-pyridyl)piperazin-1-yl]phenoxy]butyrate]
IC50 [1]: 0.501 µM | Kb [2]: 0.2 µM

SMILES: O=C(O)COc1ccc(C(=O)CN2CCN(c3ccnc4ccccc34)CC2)cc1 [Example 44, 4-[2-[4-(4-Quinolinyl)piperazin-1-yl]acetyl]phenoxyacetic acid trifluoroacetate salt]
IC50 [1]: 0.1 µM | Kb [2]: 10 µM

SMILES: O=C(O)COC1CCCN(C(=O)CN2CCN(c3ccncc3)CC2)C1 (centres unmarked) [Example 104, 1[2-[4-(4-Pyridyl)piperazin-1yl]acetyl]piperidin-3-yloxyacetic acid]
IC50 [1]: 20 µM | Kb [2]: > 100 µM

Next, values leading:

IC50 [1]: > 100 µM | Kb [2]: 15.8 µM
SMILES: CCOC(=O)C=CCOc1ccc(N2CCN(c3ccncc3)CC2)cc1 [Example 54, Ethyl 4-[4-(4-pyridyl)piperazin-1-yl]phenoxycrotonate]

IC50 [1]: 0.316 µM | Kb [2]: 0.316 µM
SMILES: O=C(O)COc1ccc(CC(=O)N2CCN(c3ccncc3)CC2)cc1 [Example 150, 4-[2-[4-(4-Pyridyl)piperazin-1-yl]carbonylmethyl]phenoxyacetic acid, dihydrochloride]

IC50 [1]: 50.1 µM | Kb [2]: 6.31 µM
SMILES: COC(=O)CNc1ccc(OC(=O)CC2CCN(c3ccncc3)CC2)cc1 [Example 172, 4-Methyloxycarbonylmethylamiophenyl [1-(4-pyridyl)piperidin4-yl]acetate]

IC50 [1]: 0.2 µM | Kb [2]: 0.631 µM
SMILES: O=C(O)C1CCN(C(=O)c2ccc(N3CCN(c4ccncc4)CC3)cc2)CC1 [Example 234, 4-[(4-Pyridyl)piperazin-1-yl]benzoylisonipecotic acid]

IC50 [1]: 0.002 µM | Kb [2]: 0.0316 µM
SMILES: CCCCS(=O)(=O)N[C@@H](Cc1ccc(OC2CCN(c3ccncc3)CC2)cc1)C(=O)O [Example 38, 2-S-(n-Butylsulphonylamino)-3-[4-[1-(4-pyridyl)piperidin-4-yl]oxyphenyl]propionic acid]

IC50 [1]: 6.31 µM | Kb [2]: 100 µM
SMILES: O=C(O)CCCCN1CCN(c2ccncc2)CC1 [Example 196, 5-[(4-Pyridyl)piperazin-1-yl]pentanoic acid, dihydrochloride salt]

IC50 [1]: 0.0126 µM | Kb [2]: 0.501 µM
SMILES: CCCCS(=O)(=O)N[C@@H](Cc1ccc(OCCCC2CCN(c3ccncc3)CC2)cc1)C(=O)O [Example 82, 2-S-(n-Butylsulphonylamino)-3-[4-[3-[1-(4-pyridyl)piperidin-4-yl]propoxy]phenyl]propionic acid]

IC50 [1]: 0.501 µM | Kb [2]: 31.6 µM
SMILES: CN(C)c1ccncc1CCCOc1ccc(OCCCC(=O)O)cc1 [Example 224, 4-[4-[3-(4-dimethylaminopyrid-3-yl)propyloxy]phenoxy]butyric acid]

Test (b): pIC50 (-log(IC50)), 50% inhibition of biotinylated fibrinogen binding to GPIIb/IIIa [1]: 8.5 | Test (a): pA2 value indicating potency of platelet aggregation inhibition [2]: 7.6
SMILES: CCCCS(=O)(=O)NC(CC(=O)O)c1ccc(OCC2CCN(c3ccncc3)CC2)cc1 (centres unmarked) [Example 98, 3-(n-Butylsulphonylamino)-3-[4-[1-(4-pyridyl)piperidin-4-yl]methoxyphenyl]propionic acid]

IC50 [1]: 3.98 µM | Kb [2]: 12.6 µM
SMILES: COC(=O)CCNC(=O)c1ccc(N2CCN(c3ccncc3)CC2)nc1 [Example 69, Methyl 3-[6-[4-(4-pyridyl)piperazin-1-yl]pyrid-3-ylcarboxamido]propionate]

IC50 [1]: 3.16 µM | Kb [2]: 15.8 µM
SMILES: O=C(O)COc1cccc(C(=O)CN2CCN(c3ccncc3)CC2)c1 [Example 126, 3-[2-[4-(4-Pyridyl)piperazin-1-yl]acetyl]phenoxyacetic acid, dihydrochloride]

IC50 [1]: 0.02 µM | Kb [2]: 0.794 µM
SMILES: O=C(O)CCNC(=O)CCCCN1CCN(c2ccncc2)CC1 [Example 198, 3-[5-[4-(4-Pyridyl)piperazine-1-yl]pentanoyl]aminopropionic acid]

IC50 [1]: 0.01 µM | Kb [2]: 0.251 µM
SMILES: C=CCc1cc(N2CCN(c3ccncc3)CC2)ccc1OCCCC(=O)O [Example 206]

IC50 [1]: 0.631 µM | Kb [2]: 1.26 µM
SMILES: COC(=O)COc1ccc(C(=O)C(C)(C)N2CCN(c3ccncc3)CC2)cc1 [Example 175, Methyl 4-[2-[4-(4-pyridyl)piperazin-1yl]-2,2-dimethylacetyl]-phenoxyacetate]

IC50 [1]: 15.8 µM | Kb [2]: 3.98 µM
SMILES: CCCCS(=O)(=O)NCc1ccc(CCN2CCN(c3ccncc3)CC2)cc1 [Example 185, N-[4-[2-[4-(4-Pyridyl)piperazin-1-yl]ethyl]phenyl]methyl-1-butanesulphonamide]
